Test results reported in patent publication US6524820B1, “Lectins and coding sequences” (University of Georgia Research Foundation, Inc., priority 1997, dated 2003).

How the values were obtained:
[1] = system: recombinant XL35; test: Inhibition of XL35 erythrocyte agglutination activity; assay type: cell-based, Xenopus laevis; settings: 2 M urea
Procedure: The assay was performed essentially as described using trypsinized, glutaraldehyde-fixed rabbit erythrocytes [Barondes and Roberson (1987) Methods Enzymol. 138, 516-20] in TCS buffer (10 mM Tris, pH 7.6, 10 mM CaCl2, 150 mM NaCl). To compare the agglutination properties of both the purified and recombinant lectins, the two lectins were assayed under similar conditions. Because the eluted recombinant lectin was in 8 M urea, a solution of purified non-recombinant lectin was also brought to 8 M with a concentrated urea solution. The agglutination assay was performed using […] of either recombinant or native XL35 lectin in […] TCS and 8 M urea was added to wells of a 96-well microtiter plate. Next, […] of TCS alone or TCS containing 0.4 M EDTA or 1.0 M melibiose or 1.0 M sucrose was added to the wells and mixed with the lectin solution. To this solution, 50 ml of a 1:1 suspension of trypsinized, glutaraldehyde-fixed rabbit erythrocytes in TCS was added and the contents of the wells were mixed by trituration. The final concentration of urea in the wells was 2 M, while that of EDTA was 0.10 M and that of melibiose and sucrose were 0.25 M. Agglutination activity was scored after 1.5 hr. at room temperature using an inverted microscope on low power. After 1.5 hr in TCS plus 2 M urea, the purified oocyte lectin retained about 25-50% of the agglutination activity observed when it was assayed in TCS alone, but the relative abilities of various sugars to inhibit the agglutination reaction were similar in the presence or absence of urea. The recombinant lectin precipitated in the absence of urea; therefore, at least 2 M urea was used in the agglutination assay.

[2] = system: recombinant XL35; settings: in the presence of Ca++; literature (Clark 1987); cited from earlier work

| Compound | inhibition of recombinant XL35 agglutination activity ([1]; inhibitor at 0.1 M) | inhibition of recombinant XL35 agglutination activity ([1]; inhibitor at 0.25 M) | inhibition of agglutination of trypsinized rabbit erythrocytes by frog oocyte lectins [2] |
| --- | --- | --- | --- |
| O=C(O)CN(CCN(CC(=O)O)CC(=O)O)CC(=O)O [EDTA] | completely inhibited | – | – |
| OC[C@H]1O[C@@](CO)(O[C@H]2O[C@H](CO)[C@@H](O)[C@H](O)[C@H]2O)[C@@H](O)[C@@H]1O [sucrose] | – | not | – |
| OC[C@H]1O[C@H](OCC2O[C@@H](O)[C@H](O)[C@@H](O)[C@@H]2O)[C@H](O)[C@@H](O)[C@H]1O (stereo partly shown) [melibiose] | – | completely inhibited | strongly inhibited |
